Reference: article PMC7539012, “Hyperphosphorylated tau aggregation and cytotoxicity modulators screen identified prescription drugs linked to Alzheimer's disease and cognitive functions” (Scientific Reports, 2020)
Counter-ions that a name gives are not always drawn.

Each molecule was assayed on T1, 1N4R p-tau (assay: p-tau aggregation modulator screen of 1280-compound library (ThS fluorescence net change over 16 h)). Conditions: not given.
T1 construct: made in house; host or cells: E. coli (PIMAX system)
Format: biochemical
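Also: 30 µM compound with 6 µM p-tau over 16 h.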

Compound	ThS net change
C[C@@H]1C[C@H]2[C@@H]3C[C@H](F)C4=CC(=O)C=C[C@]4(C)[C@@]3(F)[C@@H](O)C[C@]2(C)[C@@]1(O)C(=O)COC(=O)C(C)(C)C [Flumethasone pivalate]	476
COCCCC/C(=N\OCCN)c1ccc(C(F)(F)F)cc1 [Fluvoxamine maleate]	420
C[C@]12CCC(=O)C(O)=C1CC[C@@H]1[C@@H]2CC[C@]2(C)C(=O)CC[C@@H]12 [Formestane]	413
C/C(=C(/CCO)SSCC1CCCO1)N(C=O)Cc1cnc(C)nc1N.Cl (centres unmarked) [Fursultiamine Hydrochloride]	360
COc1ccc2c3c1O[C@H]1C[C@@H](O)C=C[C@@]31CCN(C)C2 [Galanthamine hydrobromide]	448
CCC1(c2ccc(N)cc2)CCC(=O)NC1=O (centres unmarked) [Glutethimide, para-amino]	340
CCCCN(CCCC)CCC(O)c1cc2c(Cl)cc(Cl)cc2c2cc(C(F)(F)F)ccc12 (centres unmarked) [Halofantrine hydrochloride]	555
COc1ccc([C@@H]2CC(=O)c3c(O)cc(O[C@@H]4O[C@H](CO[C@@H]5O[C@@H](C)[C@H](O)[C@@H](O)[C@H]5O)[C@@H](O)[C@H](O)[C@H]4O)cc3O2)cc1O [Hesperidin]	425

Same assay, conditions: 1280-compound library screen; ThS fluorescence net change over 16 h

Compound	ThS net change
O=c1[nH]c(=O)n([C@H]2C[C@H](O)[C@@H](CO)O2)cc1F [Floxuridine]	388
CC(=O)OCC(=O)[C@@]1(O)CC[C@H]2[C@@H]3CCC4=CC(=O)CC[C@]4(C)[C@@]3(F)[C@@H](O)C[C@@]21C [Fludrocortisone acetate]	380
CC1(C)O[C@@H]2C[C@H]3[C@@H]4C[C@H](F)C5=CC(=O)C=C[C@]5(C)[C@H]4[C@@H](O)C[C@]3(C)[C@]2(C(=O)CO)O1 [Flunisolide]	378
CC(=O)OCC(=O)[C@@]12OC(C)(C)O[C@@H]1C[C@H]1[C@@H]3C[C@H](F)C4=CC(=O)C=C[C@]4(C)[C@@]3(F)[C@@H](O)C[C@@]12C [Fluocinonide]	387
CC(=O)[C@@]1(O)CC[C@H]2[C@@H]3C[C@H](C)C4=CC(=O)C=C[C@]4(C)[C@@]3(F)[C@@H](O)C[C@@]21C [Fluorometholone]	383
Nc1nc(=O)c2nc(CNc3ccc(C(=O)N[C@@H](CCC(=O)O)C(=O)O)cc3)cnc2[nH]1 [Folic acid]	398
O=C(O)c1ccccc1OP(=O)(O)O [Fosfosal]	380
Cl.O=C1OC(CN2CCOCC2)CN1/N=C/c1ccc([N+](=O)[O-])o1 (centres unmarked) [Furaltadone hydrochloride]	385
Nc1nc(O)c2ncn(COC(CO)CO)c2n1 [Ganciclovir]	404
COc1cc2ncnc(Nc3ccc(F)c(Cl)c3)c2cc1OCCCN1CCOCC1 [Gefitinib]	395
Cl.O=C(OCC(O)CO)c1ccccc1Nc1ccnc2cc(Cl)ccc12 (centres unmarked) [Glafenine hydrochloride]	412
COc1ccc(Cl)cc1C(=O)NCCc1ccc(S(=O)(=O)NC(=O)NC2CCCCC2)cc1 [Glibenclamide]	391
Cc1ccc(S(=O)(=O)NC(=O)NN2CC3CCCC3C2)cc1 (centres unmarked) [Gliclazide]	379
C[N+]1(C)CCC(OC(=O)C(O)(c2ccccc2)C2CCCC2)C1 (centres unmarked) [Glycopyrrolate]	401
CN1C2CCCC1CC(NC(=O)c1nn(C)c3ccccc13)C2 (centres unmarked) [Granisetron]	399
COc1ccccc1O [Guaiacol]	397
N=C(N)N/N=C/c1c(Cl)cccc1Cl [Guanabenz acetate]	405
CC1(C)O[C@@H]2C[C@H]3[C@@H]4CCC5=CC(=O)CC[C@]5(C)[C@@]4(F)[C@@H](O)C[C@]3(C)[C@]2(C(=O)CCl)O1 [Halcinonide]	384

Same assay, conditions: 1280-compound library screen; […]

Compound	ThS net change
C#C[C@]1(O)CC[C@H]2[C@@H]3CCC4=CC(=O)CCC4=C3C=C[C@@]21CC [Gestrinone]	397
C[N+]1(C)CCOC(O)(c2ccc(-c3ccc(C4(O)C[N+](C)(C)CCO4)cc3)cc2)C1.[Br-].[Br-] (centres unmarked) [Hemicholinium bromide]	379

Same assay, conditions: library screen, ThS fluorescence net change over 16 h with p-tau

Compound	ThS net change
CC1CCc2cc(F)cc3c(=O)c(C(=O)O)cn1c23 (centres unmarked) [Flumequine]	303
O=C1NCN(c2ccccc2)C12CCN(CCCC(c1ccc(F)cc1)c1ccc(F)cc1)CC2 [Fluspirilen]	258
CCOC(=O)c1ccc(OC(=O)CCCCCNC(=N)N)cc1.CS(=O)(=O)O [Gabexate mesilate]	305
O=C(CCCN1CCC(O)(c2ccc(Cl)cc2)CC1)c1ccc(F)cc1 [Haloperidol]	319

Same assay, conditions: p-tau aggregation modulator screen of 1280-compound library; ThS fluorescence net change

Compound	ThS net change
COC(=O)Nc1nc2cc(C(=O)c3ccc(F)cc3)ccc2[nH]1 [Flubendazol]	332
OC(Cn1cncn1)(Cn1cncn1)c1ccc(F)cc1F [Fluconazole]	374
Nc1[nH]c(=O)ncc1F [Flucytosine]	334
Fc1ccc(C(c2ccc(F)cc2)N2CCN(C/C=C/c3ccccc3)CC2)cc1 [Flunarizine dihydrochloride]	370
Cc1c(Nc2ncccc2C(=O)O)cccc1C(F)(F)F [Flunixin meglumine]	354
CNCCC(Oc1ccc(C(F)(F)F)cc1)c1ccccc1 (centres unmarked) [Fluoxetine hydrochloride]	370
OCCN1CCN(CCCN2c3ccccc3Sc3ccc(C(F)(F)F)cc32)CC1 [Fluphenazine dihydrochloride]	370
CC1(C)O[C@@H]2C[C@H]3[C@@H]4C[C@H](F)C5=CC(=O)CC[C@]5(C)[C@H]4[C@@H](O)C[C@]3(C)[C@]2(C(=O)CO)O1 [Flurandrenolide]	377
CC(C(=O)O)c1ccc(-c2ccccc2)c(F)c1 (centres unmarked) [Flurbiprofen]	377
CC(C)C(=O)Nc1ccc([N+](=O)[O-])c(C(F)(F)F)c1 [Flutamide]	331
Nc1nc(=O)c2c([nH]1)NCC(CNc1ccc(C(=O)N[C@@H](CCC(=O)[O-])C(=O)[O-])cc1)N2C=O.[Ca+2] (some centres unmarked) [Folinic acid calcium salt]	359
Cc1cn[nH]c1 [Fomepizole]	344
NS(=O)(=O)c1cc(C(=O)O)c(NCc2ccco2)cc1Cl [Furosemide]	360
CC[N+](CC)(CC)CCOc1cccc(OCC[N+](CC)(CC)CC)c1OCC[N+](CC)(CC)CC [Gallamine triethiodide]	363
Cc1ccc(C)c(OCCCC(C)(C)C(=O)O)c1 [Gemfibrozil]	353
Cc1cnc(C(=O)NCCc2ccc(S(=O)(=O)NC(=O)NC3CCCCC3)cc2)cn1 [Glipizide]	371
COC1=CC(=O)C[C@@H](C)[C@]12Oc1c(Cl)c(OC)cc(OC)c1C2=O [Griseofulvin]	337
COc1ccccc1OCC(O)CO (centres unmarked) [Guaifenesin]	376
N=C(N)NCC1COC2(CCCCC2)O1.N=C(N)NCC1COC2(CCCCC2)O1.O=S(=O)(O)O (centres unmarked) [Guanadrel sulfate]	373
Clc1cc(Cl)c(OCC#CI)cc1Cl [Haloprogin]	374
CC(N)CCCC(C)(C)O (centres unmarked) [Heptaminol hydrochloride]	362

Same assay, conditions: p-tau aggregation modulator screen of 1280-compound library; […]

Compound	ThS net change
NCC1(CC(=O)O)CCCCC1 [Gabapentin]	363

Same assay, conditions: p-tau aggregation modulator screen of the compound library, ThS fluorescence net change

Compound	ThS net change
CS(=O)(=O)c1ccc([C@@H](O)[C@@H](CF)NC(=O)C(Cl)Cl)cc1 [Florfenicol]	433
Cc1onc(-c2c(F)cccc2Cl)c1C(=O)N[C@@H]1C(=O)N2[C@@H]1SC(C)(C)[C@@H]2C(=O)O [Flucloxacillin sodium]	443
Nc1nc(F)nc2c1ncn2[C@@H]1O[C@H](CO)[C@@H](O)[C@@H]1O [Fludarabine]	428
O=C(O)c1ccccc1Nc1cccc(C(F)(F)F)c1 [Flufenamic acid]	416
CC1(C)O[C@@H]2C[C@H]3[C@@H]4C[C@H](F)C5=CC(=O)C=C[C@]5(C)[C@@]4(F)[C@@H](O)C[C@]3(C)[C@]2(C(=O)CO)O1 [Fluocinolone acetonide]	460
CCC(=O)O[C@]1(C(=O)SCF)[C@H](C)C[C@H]2[C@@H]3C[C@H](F)C4=CC(=O)C=C[C@]4(C)[C@@]3(F)[C@@H](O)C[C@@]21C [Fluticasone propionate]	503
CC(C)n1c(/C=C/C(O)CC(O)CC(=O)O)c(-c2ccc(F)cc2)c2ccccc21 (centres unmarked) [Fluvastatin sodium salt]	473
CCC(=O)O[C@@H](O[P@](=O)(CCCCc1ccccc1)CC(=O)N1C[C@H](C2CCCCC2)C[C@H]1C(=O)O)C(C)C [Fosinopril]	587
C[C@]12CC[C@@H]3c4ccc(O)cc4C[C@@H](CCCCCCCCC[S+]([O-])CCCC(F)(F)C(F)(F)F)[C@H]3[C@@H]1CC[C@@H]2O (some centres unmarked) [Fulvestrant]	442
O=C1OCCN1/N=C/c1ccc([N+](=O)[O-])o1 [Furazolidone]	415
CC(=O)O[C@H]1C[C@@]2(C)[C@@H](C[C@@H](O)[C@H]3[C@@]4(C)CC[C@@H](O)[C@@H](C)[C@@H]4CC[C@@]32C)/C1=C(\CCC=C(C)C)C(=O)O [Fusidic acid sodium salt]	438
Cl.Cl.Fc1ccc(C(OCCN2CCN(CCCc3ccccc3)CC2)c2ccc(F)cc2)cc1 [GBR 12909 dihydrochloride]	515
COc1c(N2CCNC(C)C2)c(F)cc2c(=O)c(C(=O)O)cn(C3CC3)c12 (centres unmarked) [Gatifloxacin]	426
Nc1ccn([C@@H]2O[C@H](CO)[C@@H](O)C2(F)F)c(=O)n1 [Gemcitabine]	470
CCC1=C(C)CN(C(=O)NCCc2ccc(S(=O)(=O)NC(=O)N[C@H]3CC[C@H](C)CC3)cc2)C1=O [Glimepiride]	415
COc1ccc2c(c1)C(=O)N(CCc1ccc(S(=O)(=O)NC(=O)NC3CCCCC3)cc1)C(=O)C2(C)C [Gliquidone]	492
N=C(N)NC(=O)Cc1c(Cl)cccc1Cl [Guanfacine hydrochloride]	417
